{
  "source": "patent US20070213402A1",
  "about": "“Compounds which interact with the thyroid hormone receptor for the treatment of fibrotic disease” (priority 1998, published 2007)",
  "key": {"[1]": {"tested_on": "collagenase I promoter", "assay": "Experiment 1: collagenase I promoter (-73/+63)-luciferase in CV1 cells transfected with pSG5ARF (androgen receptor)", "type": "cell-based, African Green Monkey", "settings": "for % control (AR): Blank = 100", "text": "(§1) Two plasmid constructs were introduced by standard calcium phosphate precipitation of DNA followed by glycerol shock (Ausubel F M, Brent R, Kingston D D, Moore J G et al Current protocols in molecular biology 1994 Greene Publishing Associates/Wiley-Interscience, New York, N.Y.) using a transformed African Green Monkey kidney cell line (CV1) (Schneikert J, Peterziel H, Defossez P-A, Klocker H, de Launoit Y and Cato A C B Androgen receptor-Ets protein interaction is a novel mechanism for steroid hormone-mediated down-modulation of matrix metalloproteinase expression, Journal of Biological Chemistry. Vol 271(39) (pp 23907-23913), 1996).\n(§2) Accordingly, the following two plasmids were included into CV1 cells described above — • (a) Either of GR1 or pSG5ARF containing glucocorticoid or androgen receptor (AR) respectively, both at 2 ug per 5×10^5 cells, driven by the Rous sarcoma virus promoter, and • (b) a plasmid containing the −73/+63 portion of the collagenase I promoter linked to luciferase gene at 8 ug per 5×10^5 cells.\n(§3) CPII was compound II above, clobuzarit."}, "[2]": {"tested_on": "collagenase I promoter", "assay": "Experiment 1: collagenase I promoter (-73/+63)-luciferase in CV1 cells transfected with GR1 (glucocorticoid receptor)", "type": "cell-based, African Green Monkey", "settings": "for % control (GR1): Blank = 100", "text": "as §1, §2, §3"}, "[3]": {"tested_on": "NFκB", "assay": "Experiment 3: NFκB-driven 3-EnhTK-Luc reporter in CV1 cells with GR1", "type": "cell-based, African Green Monkey", "text": "as §1\nThis experiment was intended to show the effect of compounds I on a mediator of the immune response, nuclear factor—κB (NF-κB).\nThe following two plasmids were included into CV1 cells described above— • (a) GR1 as described above at 2 ug per 5×10^5 cells, and • (b) a plasmid designated 3-EnhTK-Luc (at 0.5 ug per 5×10^5 cells) which contains a transcription site that is activated by NFκB.\nThe blank represented the inclusion of these two plasmids alone; the relatively high value was caused by (i) the high level of serum in the culture, and (ii) the associated stress that the cells underwent during the […]—both of which upregulate NFκB. There was also a related relatively low activation of TNF (at 4 ng/ml) above a serum containing blank in the experiment. TNF was tumour necrosis factor alpha."}, "[4]": {"tested_on": "collagenase (MMP-1) promoter", "assay": "Experiment 4.3: collagenase (MMP-1) promoter-luciferase in MCF-7 cells with transfected chick thyroid hormone receptor", "type": "cell-based, human", "settings": "MCF-7 + chick thyroid hormone receptor, substance added alone", "protocol": "(§4) These experiments were intended to identify the receptor through which compounds I might be acting to block collagenase promoter activity.\n(§5) Transfection procedure hereinbefore described with CV1 cells was repeated using MCF-7 mammary breast cancer cells derived from pleural effusion from a breast cancer patient. Additionally, each experiment included transfection of a plasmid (at 8 ug per 5×10^5 cells) containing the −517/+63 section of the collagenase (MMP-1) promoter linked to the luciferase gene. TPA was used as above to stimulate activity of the collagenase promoter resulting in luciferase production. Compound II or 3,3,5-triiodo-L-thyronine (T3) was included (both at 10^−8M), the latter being a known ligand for the thyroid hormone receptor."}, "[5]": {"tested_on": "collagenase I promoter", "assay": "Experiment 1: collagenase I promoter (-73/+63)-luciferase in CV1 cells, no receptor plasmid (Empty)", "type": "cell-based, African Green Monkey", "settings": "no receptor, substance added alone", "text": "as §1, §2, §3"}, "[6]": {"tested_on": "collagenase (MMP-1) promoter", "assay": "Experiment 4.2: collagenase (MMP-1) promoter-luciferase in MCF-7 cells with antisense construct for the thyroid receptor", "type": "cell-based, human", "settings": "MCF-7 + thyroid receptor antisense, substance added alone", "protocol": "as §4, §5\nExperiment 4.2. The procedure of Experiment 4.1 was repeated except that a second plasmid, containing 662 bp antisense construct for the thyroid receptor (at 8 ug per 5×10^5 cells) was additionally transfected."}, "[7]": {"tested_on": "collagenase (MMP-1) promoter", "assay": "Experiment 4.1: collagenase (MMP-1) promoter (-517/+63)-luciferase in MCF-7 cells, endogenous thyroid hormone receptors", "type": "cell-based, human", "settings": "MCF-7, endogenous thyroid hormone receptors, substance added alone", "protocol": "as §4, §5\nExperiment 4.1. As MCF-7 cells express endogenous thyroid hormone receptors, only the collagenase promoter plasmid (at 8 ug per 5×10^5 cells) was transfected into the MCF-7 cells."}, "[8]": {"settings": "substance added with TPA 75 ng/ml, DHT 10^-7M"}, "[9]": {"settings": "substance added with TPA 75 ng/ml, Dex 10^-7M"}, "[10]": {"settings": "substance added alone, TPA 75 ng/ml"}},
  "data": [
    {"smiles": "C[C@]12CCC(=O)C[C@@H]1CC[C@@H]1[C@@H]2CC[C@]2(C)[C@@H](O)CC[C@@H]12", "note": "[DHT, dihydroxytestosterone, reference compound]", "values": [
      {"measurement": "Raw counts (AR)", "setting": "[1]; [8]", "result": 3711, "unit": "counts"},
      {"measurement": "% control (AR)", "setting": "[1]; [8]", "result": 139, "unit": "%"},
      {"measurement": "collagenase I activation, in words (AR)", "setting": "[1]; TPA-stimulated, androgen receptor", "result": "able to down regulate this activation"}
    ]},
    {"smiles": "C[C@@H]1C[C@H]2[C@@H]3CCC4=CC(=O)C=C[C@]4(C)[C@@]3(F)[C@@H](O)C[C@]2(C)[C@@]1(O)C(=O)CO", "note": "[Dex, dexamethazone, reference compound]", "values": [
      {"measurement": "Raw counts (GR1)", "setting": "[2]; [9]", "result": 10981, "unit": "counts"},
      {"measurement": "% control (GR1)", "setting": "[2]; [9]", "result": 86, "unit": "%"},
      {"measurement": "collagenase I activation, in words (GR1)", "setting": "[2]; TPA-stimulated, glucocorticoid receptor", "result": "able to down regulate this activation"},
      {"measurement": "Raw Counts", "setting": "[3]; substance added with TNF 4 ng/ml", "result": 18525, "unit": "counts"},
      {"measurement": "% Control", "setting": "[3]; substance added with TNF 4 ng/ml, Blank = 100", "result": 31, "unit": "%"},
      {"measurement": "inhibitory effect on NFκB transcription, in words", "setting": "[3]; with TNF", "result": "marked effect"}
    ]},
    {"smiles": "CCCCCCCCCCCCCC(=O)O[C@@H]1[C@@H](C)[C@@]2(O)[C@@H](C=C(CO)C[C@]3(O)C(=O)C(C)=C[C@@H]23)[C@@H]2C(C)(C)[C@]12OC(C)=O", "note": "[TPA, 12-O—tetradecanoylphorbol-13-acetate, reference compound]", "values": [
      {"measurement": "% control (GR1)", "setting": "[2]; substance added alone", "result": 448, "unit": "%"},
      {"measurement": "Raw counts (GR1)", "setting": "[2]; [10]", "result": 57519, "unit": "counts"},
      {"measurement": "% Control", "setting": "[4]; Blank = 100", "result": 528, "unit": "%"},
      {"measurement": "Raw Counts", "setting": "[4]; CPII 10^-8M", "result": 11528, "unit": "counts"},
      {"measurement": "Raw counts (Empty)", "setting": "[5]; luciferase, TPA 75 ng/ml", "result": 5407, "unit": "counts"},
      {"measurement": "% control (Empty)", "setting": "[5]; Blank = 100", "result": 225, "unit": "%"},
      {"measurement": "% Control", "setting": "[6]; Blank = 100", "result": 341.2, "unit": "%"},
      {"measurement": "Raw Counts", "setting": "[6]; CPII 10^-8M", "result": 4975, "unit": "counts"},
      {"measurement": "% Control", "setting": "[7]; Blank = 100", "result": 1174.3, "unit": "%"},
      {"measurement": "Raw Counts", "setting": "[7]; CPII 10^-8M", "result": 147665, "unit": "counts"},
      {"measurement": "% control (AR)", "setting": "[1]; substance added alone", "result": 436, "unit": "%"},
      {"measurement": "Raw counts (AR)", "setting": "[1]; [10]", "result": 11639, "unit": "counts"}
    ]}
  ]
}
